# Values quoted from earlier work, collected in patent US20070036859A1, “Sustained release antihistamine and decongestant composition” (priority 2005, published 2007).
# Settings: conventional tablets, oral
smiles,measurement,value
CCOC(=O)N1CCC(=C2c3ccc(Cl)cc3CCc3cccnc32)CC1 [loratadine],duration of antihistaminic effect,> 24 h
same,time to begin of antihistaminic effect after ingestion,one to three
